Assay results published in PubChem BioAssay (NCI).
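1) Cells in 96-well plates. 2) Compound, 48 h, 5 concentrations. 3) Linear interpolation between surrounding doses. 4) Unreached endpoint = highest concentration. TGI: concentration producing complete growth inhibition.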

What was measured:
Assay in all cases: growth of human tumour cells (NCI), 48 h
786-0 renal = test system: 786-0 renal
A549 NSCLC = test system: A549 NSCLC
ACHN renal = test system: ACHN renal
BT-549 breast = test system: BT-549 breast
CAKI-1 renal = test system: CAKI-1 renal
COLO 205 colon = test system: COLO 205 colon
EKVX NSCLC = test system: EKVX NSCLC
HCT-116 colon = test system: HCT-116 colon
HCT-15 colon = test system: HCT-15 colon
HOP-62 NSCLC = test system: HOP-62 NSCLC
HOP-92 NSCLC = test system: HOP-92 NSCLC
HS 578T breast = test system: HS 578T breast
HT29 colon = test system: HT29 colon
IGROV1 ovarian = test system: IGROV1 ovarian
K-562 leukemia = test system: K-562 leukemia
KM12 colon = test system: KM12 colon
M14 melanoma = test system: M14 melanoma
MALME-3M melanoma = test system: MALME-3M melanoma
MDA-MB-231 breast = test system: MDA-MB-231 breast
MDA-MB-435 = test system: MDA-MB-435
MDA-N = test system: MDA-N
NCI-H226 lung = test system: NCI-H226 lung
NCI-H23 lung = test system: NCI-H23 lung
NCI-H522 lung = test system: NCI-H522 lung
NCI/ADR-RES ovarian = test system: NCI/ADR-RES ovarian
OVCAR-3 ovarian = test system: OVCAR-3 ovarian
OVCAR-4 ovarian = test system: OVCAR-4 ovarian
OVCAR-5 ovarian = test system: OVCAR-5 ovarian
OVCAR-8 ovarian = test system: OVCAR-8 ovarian
PC-3 prostate = test system: PC-3 prostate
RPMI-8226 leukemia = test system: RPMI-8226 leukemia
RXF 393 renal = test system: RXF 393 renal
SF-268 CNS = test system: SF-268 CNS
SF-295 CNS = test system: SF-295 CNS
SK-MEL-2 melanoma = test system: SK-MEL-2 melanoma
SK-MEL-28 melanoma = test system: SK-MEL-28 melanoma
SK-MEL-5 melanoma = test system: SK-MEL-5 melanoma
SK-OV-3 ovarian = test system: SK-OV-3 ovarian
SN12C renal = test system: SN12C renal
SNB-19 CNS = test system: SNB-19 CNS
SNB-75 CNS = test system: SNB-75 CNS
SW-620 colon = test system: SW-620 colon
T-47D breast = test system: T-47D breast
TK-10 renal = test system: TK-10 renal
U251 CNS = test system: U251 CNS
UACC-257 melanoma = test system: UACC-257 melanoma
UACC-62 melanoma = test system: UACC-62 melanoma
UO-31 renal = test system: UO-31 renal
CCRF-CEM leukemia = test system: CCRF-CEM leukemia
DU-145 prostate = test system: DU-145 prostate
HL-60(TB) leukemia = test system: HL-60(TB) leukemia
LOX IMVI melanoma = test system: LOX IMVI melanoma
MCF7 breast = test system: MCF7 breast
MOLT-4 leukemia = test system: MOLT-4 leukemia
NCI-H460 lung = test system: NCI-H460 lung
SF-539 CNS = test system: SF-539 CNS
SR leukemia = test system: SR leukemia

Q: With `O=S(=O)(O)c1cc(N=Nc2c(O)ccc3ccccc23)ccc1/C=C/c1ccc(N=Nc2c(O)ccc3ccccc23)cc1S(=O)(=O)O` as the compound, how does the TGI (786-0 renal) read?
A: > 100 µM

Q: What about the TGI (A549 NSCLC) of the same compound?
A: > 100 µM

Q: And the TGI (ACHN renal)?
A: > 100 µM

Q: What about the TGI (BT-549 breast) of the same compound?
A: > 100 µM

Q: And the TGI (CAKI-1 renal)?
A: > 100 µM

Q: And the TGI (COLO 205 colon)?
A: > 100 µM

Q: And the TGI (EKVX NSCLC)?
A: > 100 µM

Q: And the TGI (HCT-116 colon)?
A: > 100 µM

Q: What about the TGI (HCT-15 colon) of the same compound?
A: > 100 µM

Q: What about the TGI (HOP-62 NSCLC) of the same compound?
A: > 100 µM

Q: What about the TGI (HOP-92 NSCLC) of the same compound?
A: > 100 µM

Q: What about the TGI (HS 578T breast) of the same compound?
A: > 100 µM

Q: And the TGI (HT29 colon)?
A: > 100 µM

Q: And the TGI (IGROV1 ovarian)?
A: > 100 µM

Q: What about the TGI (K-562 leukemia) of the same compound?
A: > 100 µM

Q: What about the TGI (KM12 colon) of the same compound?
A: > 100 µM

Q: And the TGI (M14 melanoma)?
A: > 100 µM

Q: And the TGI (MALME-3M melanoma)?
A: > 100 µM

Q: What about the TGI (MDA-MB-231 breast) of the same compound?
A: > 100 µM

Q: What about the TGI (MDA-MB-435) of the same compound?
A: > 100 µM

Q: And the TGI (MDA-N)?
A: > 100 µM

Q: And the TGI (NCI-H226 lung)?
A: > 100 µM

Q: And the TGI (NCI-H23 lung)?
A: > 100 µM

Q: And the TGI (NCI-H522 lung)?
A: > 100 µM

Q: And the TGI (NCI/ADR-RES ovarian)?
A: > 100 µM

Q: And the TGI (OVCAR-3 ovarian)?
A: > 100 µM

Q: What about the TGI (OVCAR-4 ovarian) of the same compound?
A: > 100 µM

Q: And the TGI (OVCAR-5 ovarian)?
A: > 100 µM

Q: What about the TGI (OVCAR-8 ovarian) of the same compound?
A: > 100 µM

Q: What about the TGI (PC-3 prostate) of the same compound?
A: > 100 µM

Q: What about the TGI (RPMI-8226 leukemia) of the same compound?
A: > 100 µM

Q: And the TGI (RXF 393 renal)?
A: > 100 µM

Q: What about the TGI (SF-268 CNS) of the same compound?
A: > 100 µM

Q: And the TGI (SF-295 CNS)?
A: > 100 µM

Q: What about the TGI (SK-MEL-2 melanoma) of the same compound?
A: > 100 µM

Q: And the TGI (SK-MEL-28 melanoma)?
A: > 100 µM

Q: What about the TGI (SK-MEL-5 melanoma) of the same compound?
A: > 100 µM

Q: And the TGI (SK-OV-3 ovarian)?
A: > 100 µM

Q: And the TGI (SN12C renal)?
A: > 100 µM

Q: What about the TGI (SNB-19 CNS) of the same compound?
A: > 100 µM

Q: And the TGI (SNB-75 CNS)?
A: > 100 µM

Q: What about the TGI (SW-620 colon) of the same compound?
A: > 100 µM

Q: And the TGI (T-47D breast)?
A: > 100 µM

Q: What about the TGI (TK-10 renal) of the same compound?
A: > 100 µM

Q: What about the TGI (U251 CNS) of the same compound?
A: > 100 µM

Q: What about the TGI (UACC-257 melanoma) of the same compound?
A: > 100 µM

Q: What about the TGI (UACC-62 melanoma) of the same compound?
A: > 100 µM

Q: And the TGI (UO-31 renal)?
A: > 100 µM

Q: Which TGI (786-0 renal) does the source give for `O=C(OC1C2OC(=O)c3cc(O)c(O)c(O)c3Oc3cc4c(c(O)c3O)-c3c(cc(O)c(O)c3O)C(=O)OCC3OC(O)C(OC(=O)c5cc(O)c(O)c(O)c5Oc5cc6c(c(O)c5O)-c5c(cc(O)c(O)c5O)C(=O)OC1C(COC6=O)OC2O)C(OC(=O)c1cc(O)c(O)c(O)c1)C3OC4=O)c1cc(O)c(O)c(O)c1` (centres undefined) here?
A: 47.1 µM

Q: And the TGI (A549 NSCLC)?
A: 39.7 µM

Q: And the TGI (ACHN renal)?
A: > 100 µM

Q: And the TGI (CAKI-1 renal)?
A: > 100 µM

Q: What about the TGI (CCRF-CEM leukemia) of the same compound?
A: > 100 µM

Q: And the TGI (COLO 205 colon)?
A: 54 µM

Q: What about the TGI (DU-145 prostate) of the same compound?
A: > 100 µM

Q: And the TGI (EKVX NSCLC)?
A: 37.9 µM

Q: What about the TGI (HCT-116 colon) of the same compound?
A: 57.2 µM

Q: And the TGI (HL-60(TB) leukemia)?
A: 44.4 µM

Q: What about the TGI (HOP-62 NSCLC) of the same compound?
A: 54.3 µM

Q: And the TGI (HOP-92 NSCLC)?
A: 58.5 µM

Q: What about the TGI (HS 578T breast) of the same compound?
A: 63.8 µM

Q: And the TGI (HT29 colon)?
A: 51.6 µM

Q: What about the TGI (IGROV1 ovarian) of the same compound?
A: > 100 µM

Q: What about the TGI (K-562 leukemia) of the same compound?
A: 42.8 µM

Q: And the TGI (KM12 colon)?
A: 16.2 µM

Q: And the TGI (LOX IMVI melanoma)?
A: 59.7 µM

Q: And the TGI (M14 melanoma)?
A: > 100 µM

Q: And the TGI (MALME-3M melanoma)?
A: > 100 µM

Q: And the TGI (MCF7 breast)?
A: > 100 µM

Q: What about the TGI (MDA-MB-231 breast) of the same compound?
A: 68.4 µM

Q: What about the TGI (MDA-MB-435) of the same compound?
A: 42.6 µM

Q: And the TGI (MDA-N)?
A: 46.6 µM

Q: And the TGI (MOLT-4 leukemia)?
A: 12.2 µM

Q: What about the TGI (NCI-H226 lung) of the same compound?
A: > 100 µM

Q: What about the TGI (NCI-H23 lung) of the same compound?
A: 62.6 µM

Q: What about the TGI (NCI-H460 lung) of the same compound?
A: 14.3 µM

Q: What about the TGI (NCI/ADR-RES ovarian) of the same compound?
A: > 100 µM

Q: What about the TGI (OVCAR-3 ovarian) of the same compound?
A: > 100 µM

Q: And the TGI (OVCAR-4 ovarian)?
A: 47.8 µM

Q: And the TGI (OVCAR-5 ovarian)?
A: > 100 µM

Q: And the TGI (OVCAR-8 ovarian)?
A: 81.3 µM

Q: What about the TGI (PC-3 prostate) of the same compound?
A: 87.7 µM

Q: What about the TGI (RPMI-8226 leukemia) of the same compound?
A: 50.1 µM

Q: What about the TGI (RXF 393 renal) of the same compound?
A: 52.5 µM

Q: And the TGI (SF-268 CNS)?
A: > 100 µM

Q: What about the TGI (SF-295 CNS) of the same compound?
A: 57.5 µM

Q: What about the TGI (SF-539 CNS) of the same compound?
A: 65.6 µM

Q: What about the TGI (SK-MEL-28 melanoma) of the same compound?
A: > 100 µM

Q: And the TGI (SK-MEL-5 melanoma)?
A: > 100 µM

Q: And the TGI (SK-OV-3 ovarian)?
A: 44.4 µM

Q: What about the TGI (SN12C renal) of the same compound?
A: > 100 µM

Q: And the TGI (SNB-19 CNS)?
A: 51.6 µM

Q: What about the TGI (SR leukemia) of the same compound?
A: 27.3 µM

Q: What about the TGI (SW-620 colon) of the same compound?
A: 40.5 µM

Q: What about the TGI (T-47D breast) of the same compound?
A: > 100 µM

Q: And the TGI (TK-10 renal)?
A: > 100 µM

Q: What about the TGI (UACC-257 melanoma) of the same compound?
A: > 100 µM

Q: What about the TGI (UACC-62 melanoma) of the same compound?
A: 68.5 µM

Q: And the TGI (UO-31 renal)?
A: > 100 µM
